According to US11707442B2, “Antibacterial and antifungal compounds” (The General Hospital Corporation, priority 2015, dated 2023):

Columns and labels:
P. aeruginosa = assay: MIC, broth microdilution; type: cell-based, Pseudomonas aeruginosa; conditions: Pseudomonas aeruginosa; P. aeruginosa PA14; read-out: Minimum inhibitory concentration
Source text: (§1) Bacterial strains and growth conditions and persister isolation: methicillin-resistant S. aureus (MRSA) strain MW2 BAA-1707, vancomycin-resistant S. aureus strain VRS 1, 11 clinical S. aureus isolates, 8 clinical Enterococcus faecium isolates, Klebsiella pneumoniae WGLW2 (BEI Resources, Manassas, Va., USA), Acinetobacter baumannii ATCC 17978, Pseudomonas aeruginosa PA14, and Enterobacter aerogenes ATCC 13048 were used to test antimicrobial activity (See Table 1a). S. aureus and E. faecium strains were grown in tryptic soy broth (TSB) (BD, Franklin Lakes, N.J., USA) or brain-heart infusion (BHI) broth (BD, Franklin Lakes, N.J., USA), respectively at 37° C. at 225 rpm. K. pneumoniae, A. baumannii, P. aeruginosa, and E. aerogenes were grown in Luria Bertani (LB) broth (BD, Franklin Lakes, N.J., USA).
(§2) To test the bacterial MICs for compounds described herein, the total volume in each well was 100 μl of test compounds and bacterial cells in MH broth. […] The bacterial concentration was adjusted to an initial OD600 of 0.03. After incubation at 35° C. for 18 hrs, the absorbance was measured at 595 nm in accordance with CLSI document M07-A8. The MICs of antibiotics were determined by the standard microdilution method recommended by the Clinical and Laboratory Standards Institute.

[1] = Giant unilamellar vesicles (GUVs) disruption; conditions: DOPC/DOPG 7:3; 1× and 10×MIC; result in words
E. aerogenes ATCC 13048 = assay: MIC, broth microdilution; type: cell-based, Enterobacter aerogenes; conditions: Klebsiella aerogenes, ATCC13048; E. aerogenes ATCC 13048; read-out: Minimum inhibitory concentration
Source text: as §1, §2

human erythrocytes = assay: Human blood hemolysis; type: cell-based; conditions: increasing concentrations; result in words
Description: Human blood hemolysis. Hemolytic activity of retinoids on human erythrocytes was evaluated using a previously described method with modifications (Rajamuthiah, R. et al. A defensin from the model beetle Tribolium castaneum acts synergistically with telavancin and daptomycin against multidrug resistant Staphylococcus aureus. PLoS ONE 10, e0128576 (2015)). 10% human erythrocytes were purchased from Rockland Immunochemicals (Limerick, Pa., USA). The erythrocytes were diluted to 4% with PBS, and 100 μl was added to 100 μl of two-fold serial dilutions of compounds in PBS, 0.2% DMSO (negative control), or 2% Triton-X 100 (positive control) in a 96-well plate. The 96-well plate was incubated at 37° C. for 1 h and then centrifuged at 500×g for 5 min. 100 μl of the supernatant was transferred to a fresh 96-well plate, and absorbance of supernatants was measured at 540 nm. Percent hemolysis was calculated using the following equation: (A540 nm of compound treated sample—A540nm of 0.1% DMSO treated sample)/(A540 nm of 1% Triton X-100 treated sample—A540nm of 0.1% DMSO treated sample)×100. HC50 (concentration of a compound causing 50% hemolysis) was determined using SigmaPlot 10.0 (Systat Software Inc., San Jose, Calif., USA).
In a 96 well plate, 50 μl of 2% human erythrocytes suspended in PBS was added to 50 μl of compounds serially diluted in PBS and incubated at 37° C. for 1 hour. The plate was then centrifuged at 500 G for 5 minutes and 50 μl of the supernatant from each well of the assay plate was transferred to a fresh 96 well plate. Hemolysis was confirmed by both visual observation and measuring absorbance at 540 nm. Treatment was conducted in triplicate.
2% human erythrocytes were treated with two-fold serially diluted concentration of the retinoids for 1 h at 37° C. A sample treated with 1% Triton-X 100 was used as the control for 100% hemolysis. Results are shown as means±s.d.; n=3.

[2] = test system: primary human hepatocytes; assay: Hepatotoxicity (WST-1); type: cell-based; conditions: at 32 μg/ml, 24 h
Description: Hepatotoxicity. Cryopreserved primary human hepatocytes were purchased from Cell Resource Core at Massachusetts General Hospital (Boston, Mass., USA). The hepatocytes were cultured in collagen sandwiched configuration in 24-well plates, as described previously (See, e.g., Dunn, J. C., et al. Hepatocyte function and extracellular matrix geometry: long-term culture in a sandwich configuration. FASEB J. 3, 174-177 (1989); Dunn, J. C., et al. Hepatocytes in collagen sandwich: evidence for transcriptional and translational regulation. J. Cell Biol. 116, 1043-1053 (1992); and Sharma, N. S. et al. Metabolic profiling based quantitative evaluation of hepatocellular metabolism in presence of adipocyte derived extracellular matrix. PLoS ONE 6, e20137 (2011)). Briefly, 0.4×10^6 live cells were seeded in 24-well plates coated with rat tail collagen type I. In order for cells to attach onto collagen gel, the 24-well plates were incubated in a humidified 5% CO2 incubator at 37° C. for 4 hours. The cells were washed and then cultured in 0.5 ml standard hepatocyte culture medium consisting of pre-warmed DMEM media supplemented with 10% FBS, 0.5 U/ml insulin, 14 ng/ml glucagon, 20 ng/ml EGF, 7.5 μg/ml hydrocortisone and 200 U/ml penicillin-streptomycin. The cell cultures were incubated in a humidified 5% CO2 incubator at 37° C. At 24 h after seeding, a top layer of collagen gel was deposited on the hepatocytes attached to the bottom collagen layer and incubated for another 24 h, then the hepatocytes were treated with a range of concentrations of retinoids for 24 h. […] WST-1 reduction was measured at absorbance 450 nm. The percent […] relative to that of the no-treatment control was calculated. […]
0.4×10^6 primary human hepatocytes cultured in a collagen gel sandwich system were treated with a range of concentration of the synthetic retinoids for 24 h. Cell viability was calculated based on the absorbance readings at 450 nm at 4 h after adding WST-1 using the following equation: % viability=(Abssample−Absblank)/(Absnon-treated−Absblank)×100. […]

S. aureus MW2 = type: cell-based, Staphylococcus aureus; conditions: for fold increase in resistance: mutations in graS, yjbH, and manA; for fold increased resistance of CD437-resistant mutants: presumptive CD437-resistant SP1/SP2 mutants
Description: Development of resistant mutants by serial passage was conducted as previously described (Friedman, L. et al. Genetic changes that correlate with reduced susceptibility to daptomycin in Staphylococcus aureus. Antimicrob. Agents Chemother. 2006, 50, 2137-2145). […] The extended gradient was created by 2-fold serial dilutions with cation-adjusted Muller-Hinton media (CaMH) from three different starting concentrations: 80, 96, and 128 μg/ml. […] After incubating the plate at 37° C. for 24 h, OD600 nm was measured by a spectrophotometer (SpectraMax M2, Molecular Devices). Bacterial growth was defined as OD600 nm≥0.1. Two μl of the bacterial culture at the highest drug concentration that permitted bacterial growth was diluted 1,000-fold in CaMH, and the diluted culture was used as inoculum for the next passage. The rest of the culture was stored in 16% glycerol at −80° C.
Sequencing of PCR products were conducted by GENEWIZ (South Plainfield, N.J., USA). The passage day when the mutations occurred was identified by colony PCR using three colonies from each glycerol freezer stock, followed by sequencing of the PCR products. The passage day when the susceptibility to the retinoids changed was identified by repeating MIC determinations using overnight cultures from three colonies from each glycerol freezer stock.

A. baumannii = assay: MIC, broth microdilution; type: cell-based, Acinetobacter baumannii; conditions: Acinetobacter baumannii, ATCC17978; A. baumannii ATCC 17978; read-out: Minimum inhibitory concentration
Source text: as §1, §2

[3] = test system: Exponential-phase MRSA cells; assay: Killing kinetics assay; type: cell-based, Staphylococcus aureus; conditions: 10×MIC, result in words
Description: Killing kinetics assay. An S. aureus overnight culture was diluted 1:10,000 in 25 ml fresh TSB in a 250 ml flask. In order to obtain exponential-phase cells, the diluted cell suspension was incubated at 37° C., with shaking at 225 rpm for 4 h until the OD600 nm was 0.4 (˜2×10^7 CFU/ml). 0.5 ml of the exponential phase cell culture was added to the wells of a 2 ml deep well assay block (Corning Costar 3960) containing 0.5 ml of pre-warmed TSB with twice the desired concentrations of compounds. The assay block was sealed with a gas-permeable Breathe-Easy membrane and incubated at 37° C. shaking at 225 rpm. At specific times, 50 μl samples were removed, serially diluted and spot-plated onto tryptic soy agar (TSA, BD) plates to enumerate the number of cells. These experiments were conducted in triplicate.
Colony forming unit counts of cells were measured by serial dilution and plating on TSA plates. The data points on the x-axis are below the level of detection (2×10^2 CFU/mL). Results are shown as means±s.d.; n=3.

In the case of `O=C(O)/C=C/c1ccc(-c2ccc(O)c(C34CC5CC(CC(C5)C3)C4)c2)cc1` [Adarotene, (2E)-3-(4′-Hydroxy-3′-tricyclo[3.3.1.13,7]dec-1-yl[1,1′-biphenyl]-4-yl)-2-propenoic acid], the MIC (P. aeruginosa) is reported as greater than 64 µg/mL, the “integrity of giant unilamellar vesicles (GUVs)” value [1] is reported as “disrupt the integrity” and the MIC (E. aerogenes ATCC 13048) is reported as greater than 64 µg/mL. The “toxicity (hemolysis) to erythrocytes” value (human erythrocytes) was “not toxic”, the “toxicity to primary human hepatocytes” value [2] was “did not cause significant toxicity” and the “fold increase in resistance” value (S. aureus MW2) was 1.5 fold. For the same compound, the “fold increased resistance of CD437-resistant mutants” value (S. aureus MW2) was 2 fold, the MIC (A. baumannii) was greater than 64 µg/mL and the killing kinetics [3] was “fast killing kinetics”.

With `O=C(O)c1ccc2cc(-c3ccc(O)c(C45CC6CC(CC(C6)C4)C5)c3)ccc2c1` [CD437, 6-(4-hydroxy-3-tricyclo[3.3.1.13,7]dec-1-ylphenyl)-2-naphthalenecarboxylic acid] the MIC (P. aeruginosa) was greater than 64 µg/mL, the MIC (E. aerogenes ATCC 13048) was greater than 64 µg/mL and the “toxicity to primary human hepatocytes” value [2] was “did not cause significant toxicity”. For the same compound, the MIC (A. baumannii) was greater than 64 µg/mL and the killing kinetics [3] was “fast killing kinetics”.

For `O=C(O)c1ccc(-c2ccc3cc(O)c(C45CC6CC(CC(C6)C4)C5)cc3c2)cc1` [CD1530, 4-(6-hydroxy-7-tricyclo[3.3.1.13,7]dec-1-yl-2-naphthalenyl)-benzoic acid], the MIC (P. aeruginosa) was greater than 64 µg/mL, the “integrity of giant unilamellar vesicles (GUVs)” value [1] was “disrupt the integrity” and the MIC (E. aerogenes ATCC 13048) was greater than 64 µg/mL. For the same compound, the “toxicity (hemolysis) to erythrocytes” value (human erythrocytes) was “not toxic”, the “toxicity to primary human hepatocytes” value [2] was “did not cause significant toxicity” and the “fold increase in resistance” value (S. aureus MW2) was 1.5 fold. For the same compound, the “fold increased resistance of CD437-resistant mutants” value (S. aureus MW2) was 2 fold, the MIC (A. baumannii) was greater than 64 µg/mL and the killing kinetics [3] was “fast killing kinetics”.
